Reference: PubChem BioAssay (NCI)
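Growth conditions: 96-well plates. Treatment: test compound, 48 hours, 5 concentrations. Analysis: linear interpolation between bracketing concentrations; unreached endpoints set to highest concentration. GI50 is the concentration that inhibits growth by half. At the TGI there is no net growth.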

Assays:
Experiment in all cases: NCI tumour cell line growth inhibition, 48 h
CCRF-CEM leukemia = test system: CCRF-CEM leukemia
PC-3 prostate = test system: PC-3 prostate
UACC-62 melanoma = test system: UACC-62 melanoma
TK-10 renal = test system: TK-10 renal
OVCAR-3 ovarian = test system: OVCAR-3 ovarian
HCT-116 colon = test system: HCT-116 colon
SN12C renal = test system: SN12C renal
MDA-MB-435 = test system: MDA-MB-435

SMILES	GI50 (CCRF-CEM leukemia) [µM]	TGI (CCRF-CEM leukemia) [µM]	GI50 (PC-3 prostate) [µM]	TGI (PC-3 prostate) [µM]	GI50 (UACC-62 melanoma) [µM]	TGI (UACC-62 melanoma) [µM]	GI50 (TK-10 renal) [µM]	TGI (TK-10 renal) [µM]	GI50 (OVCAR-3 ovarian) [µM]	TGI (OVCAR-3 ovarian) [µM]	GI50 (HCT-116 colon) [µM]	TGI (HCT-116 colon) [µM]	GI50 (SN12C renal) [µM]	TGI (SN12C renal) [µM]	GI50 (MDA-MB-435) [µM]	TGI (MDA-MB-435) [µM]
O=c1[nH]c2cc(Cl)c(Cl)cc2n2cc3ccccc3c12	22.1	48.9	17.3	31.1	16.5	30.1	16.8	30.4	18.4	32.4	21	35.3	15.7	29.4	16.9	30.5
COc1ccc(NC(=O)c2sc3nc4c(cc3c2N)CCCC4)cc1	0.322	> 100	0.822	> 100	0.352	> 100			0.336	3.19	0.355	11	1.43	> 100		
CN(C)C/C=C/C(=O)Nc1ccc(C(=O)N2CCC[C@@H](Nc3ncc(Cl)c(-c4c[nH]c5ccccc45)n3)C2)cc1	0.0438	15.8	0.308	3.48	0.173	0.445	2.31	12.9	0.0644	0.99	0.154	10.6	0.21	9.29	0.0832	1.23
c1cnc2[nH]cc(-c3csc(-c4cn(CCCN5CCCCC5)c5ccccc45)n3)c2c1			1.59	3.05	1.7	3.3	2.22	3.79	1.54	2.96			1.68	3.22	1.67	3.09
C[C@@H]1C/C=C\C(=O)O[C@H](/C=C/C#C/C=C/C(C)(C)[C@@H](O)c2cccc(O)c2Br)[C@@H](C)/C=C/[C@H](C)C[C@H](OC(N)=O)C1	0.0419	33	0.045	17.4	0.0239	0.0656	4.28	21.6	0.0636	15.7	0.0362	12.5	0.0542	14	0.0332	12.1
COc1ccc(C2ONC3=NCCN32)cc1 (stereo unspecified)	26.6	61.7	55.4	> 100	67.3	> 100	> 100	> 100	35.2	> 100	40.4	> 100	52.8	> 100	> 100	> 100
COc1ccc(C(=O)C[C@]2(O)C(=O)Nc3c(Cl)ccc(Cl)c32)cc1	0.563	> 100	1.16	> 100	0.486	> 100	> 29.4	> 100	0.348	7.19	0.406	24.6	0.87	> 100	0.128	0.396
Cc1cc(=O)oc2cc(OCCn3c(C)nn(-c4ccc(Cl)cc4)c3=O)ccc12			8.13	> 100	1.99	> 100	13.4	88.4	3.25	15.2	3.57	> 100	5.54	> 100	0.269	0.837
COc1ccc2c(c1)nc1n2C(c2ccc(F)cc2)SC1 (stereo unspecified)	25.9	> 100	27.1	> 100	16.6	34.9	22.8	> 100	22.6	65.4	30.8	> 100	32.2	> 100	21.8	59.5
Cn1cnc([N+](=O)[O-])c1Sc1nc(N)nc2nc[nH]c12	3.01	> 100	7.91	> 100	2.96	25.7	5.75	> 100	4.65	> 100	2.71	> 100	6.7	> 100	3.31	> 100
COc1ccccc1/C=C\C(=O)c1ccccc1	3.28	> 100	5.85	23	5.57	18.7	12.5	25.2	7.43	19.3	3.4	11.6	9.36	22.1	4.27	16.5
COc1cc(O)c(C(C)=O)c(O)c1				> 100		> 100		> 100		> 100		> 100		> 100		> 100
C/C(=N\n1c(N)c(C#N)c(-c2ccc(Cl)cc2)c(C#N)c1=O)c1ccncc1	> 100	> 100	2.41	16.8	36.4	> 100	6.04	38.9	3.7	21.5	11.9	31.7	9.88	41.1		
CCN(CC)CCOc1ccc(/C=C2\CC3C4CC=C5C[C@@H](OC(C)=O)CC[C@]5(C)C4CC[C@]3(C)C2=O)cc1OC (stereo partly specified)			4.16	26.9	2.2	4.09	2.53	6.1	1.78	3.45	1.92	5.61	12.6	30.1	1.78	3.58
C=C(CNCCc1ccc(O)cc1)[C@@H]1CC[C@]2(CO)CC[C@]3(C)[C@H](CC[C@@H]4[C@@]5(C)CCC(N)C(C)(C)[C@@H]5CC[C@]43C)[C@@H]12 (stereo partly specified)	0.28	1.23	1.44	2.98			1.73	3.22	1.65	3.1			1.56	3.02	1.52	2.85
Fc1c[c-]c(-c2ccccn2)c(F)c1.[CH3-].[Pt+2].c1ccc(P(C[PH+](c2ccccc2)c2ccccc2)c2ccccc2)cc1			0.373	1.53	0.545	1.89	0.991	3.39	0.411	1.2	0.494	1.29	0.502	1.77	0.795	2.08
CC12OC(C(=O)C13CCC3)C1C(=O)c3ccccc3C(=O)C12 (stereo unspecified)	36.9	> 100	70.7	> 100			92.5	> 100			> 100	> 100	76.7	> 100	> 100	> 100
O=C(Nc1cc(S(=O)(=O)c2ccc(Cl)cc2)ccc1Cl)c1cc(I)cc(I)c1O			14.4	28.6	4.2	15.5	18.1	34.2	17	34.2	14.3	27.7	16.1	34.8	17.4	37.8
O=C(/C=C/c1cn(-c2ccccc2)nc1-c1ccc([N+](=O)[O-])cc1)c1ccc(Cl)cc1					6.01	> 100	3.09	13.4			2.42	> 100	4.54	> 100		
COc1cc2nnn3c4ncccc4c(N=O)c3c2cc1OC			5.62	> 100	4.87	24.5	7.98	> 88.6	0.722	> 100	0.118	> 100	2.54	> 100	3.55	32.7
NC(N)=N/N=C/c1c(-c2ccc(Cl)c([N+](=O)[O-])c2)nc2n1CCS2	2.6	9.93	2.93	15.1	1.64	3.64			1.93	3.91	1.62	2.97	2.29	9.04	9.63	22.2
CCC(=O)c1cc([N+](=O)[O-])c(Br)s1			10.3	24.4	14.4	28.8	13.8	28.1	1.91	3.32	1.68	3.14	8.3	24.1	4.77	18.7
Cc1ccc(-n2c3c(c4c(CN5CCOCC5)c(O)ccc42)CCc2ccccc2C3=O)cc1			42.4	> 100	> 100	> 100	> 100	> 100	71.2	> 100	> 100	> 100	46.9	> 100	29.6	> 100
COc1ccc(-c2nc3c(c(=O)n2C(C)=O)C(c2ccc(Cl)cc2)c2sc4c(Cl)cccc4c2O3)cc1 (stereo unspecified)	0.462	6.28	0.337	2.39	0.298	1.7	0.846	2.67	0.383	1.85	0.341	1.38	0.64	2.23		
